From patent US10533010B2, “Substituted indole Mcl-1 inhibitors” (Vanderbilt University, priority 2014, dated 2020) come the findings set out here.

SMILES strings stand for the structures. Some results are limits rather than exact numbers.

Usually Ki stands for a measure of affinity in units of concentration, obtained from inhibition or displacement.

The target in the first test is recombinant Mcl-1 (residues 172-327) (Homo sapiens (Human), UniProt Q07820). Kind of test: Fluorescence polarization anisotropy competition assay (FITC-Bak or FITC-Bim BH3 peptide) with Mcl-1. Particulars: Table 2; Ki bins given in nM; FITC-Bak or FITC-Bim peptide competition; Ki converted from IC50; read-out: Ki for Inhibition of Mcl-1. The test is classed as binding. Background: Fluorescence polarisation rises when a labelled molecule tumbles more slowly, as on binding a larger partner.
Sequence of recombinant Mcl-1 (residues 172-327) (Q07820 172-327): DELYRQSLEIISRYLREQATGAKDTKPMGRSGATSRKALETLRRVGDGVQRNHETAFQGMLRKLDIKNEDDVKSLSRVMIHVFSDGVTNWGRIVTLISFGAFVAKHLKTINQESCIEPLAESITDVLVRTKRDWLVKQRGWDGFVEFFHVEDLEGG
Turning to `Cc1cc(OCCCc2c(C(=O)N3CCC(CC(=O)O)CC3)[nH]c3c(-c4c(C)nn(C)c4C)cccc23)cc(C)c1Cl` [I-204, 2-(1-(3-(3-(4-chloro-3,5-dimethylphenoxy)propyl)-7-(1,3,5-trimethyl-1H-pyrazol-4-yl)-1H-indole-2-carbonyl)piperidin-4-yl)acetic acid], the Ki lay in the range of 51 to 100 nM.

As to `Cc1cc(OCCCc2c3n(c4c(-c5c(C)nn(C)c5C)c(Cl)ccc24)[C@@H](C)CN(Cc2ccc(C(=O)O)o2)C3=O)cc(C)c1Cl` [I-148, (S)-5-((7-chloro-10-(3-(4-chloro-3,5-dimethylphenoxy)propyl)-4-methyl-1-oxo-6-(1,3,5-trimethyl-1H-pyrazol-4-yl)-3,4-dihydropyrazino[1,2-a]indol-2(1H)-yl)methyl)furan-2-carboxylic acid], the Ki was less than 50 nM. Turning to `Cc1cc(OCCCc2c3n(c4c(-c5c(C)nn(C)c5C)c(Cl)ccc24)C[C@H](C)N(Cc2ccc(C(=O)O)cn2)C3=O)cc(C)c1Cl` [I-137, (S)-6-((7-chloro-10-(3-(4-chloro-3,5-dimethylphenoxy)propyl)-3-methyl-1-oxo-6-(1,3,5-trimethyl-1H-pyrazol-4-yl)-3,4-dihydropyrazino[1,2-a]indol-2(1H)-yl)methyl)nicotinic acid], the Ki is less than 50 nM. On the same count and under the same terms, the result for `Cc1cc(OCCCc2c(C(=O)NCc3cc(C(=O)O)cc(N4CCc5ccccc5C4)n3)[nH]c3c(-c4c(C)nn(C)c4C)c(Cl)ccc23)cc(C)c1Cl` [I-282, 2-((6-chloro-3-(3-(4-chloro-3,5-dimethylphenoxy)propyl)-7-(1,3,5-trimethyl-1H-pyrazol-4-yl)-1H-indole-2-carboxamido)methyl)-6-(3,4-dihydroisoquinolin-2(1H)-yl)isonicotinic acid] reads less than 50 nM.

Regarding `Cc1cc(OCCCc2c3n(c4c(-c5c(C)nn(C)c5C)cccc24)CCCN(Cc2cc(C(=O)O)n(Cc4ccccc4)c2)C3=O)cc(C)c1Cl` [I-77, 1-benzyl-4-((1-(3-(4-chloro-3,5-dimethylphenoxy)propyl)-1-oxo-7-(1,3,5-trimethyl-1H-pyrazol-4-yl)-4,5-dihydro-1H-[1,4]diazepino[1,2-a]indol-2(3H)-yl)methyl)-1H-pyrrole-2-carboxylic acid], the Ki lay in the range of 51 to 100 nM. Regarding `Cc1cc(OCCCc2c(C(=O)N3CC(NC(=O)C(=O)O)C3)[nH]c3c(-c4c(C)nn(C)c4C)c(Cl)ccc23)cc(C)c1Cl` [I-323, 2-((1-(6-chloro-3-(3-(4-chloro-3,5-dimethylphenoxy)propyl)-7-(1,3,5-trimethyl-1H-pyrazol-4-yl)-1H-indole-2-carbonyl)azetidin-3-yl)amino)-2-oxoacetic acid], the Ki was less than 50 nM.

For the compound `Cc1cc(OCCCc2c3n(c4c(-c5c(C)nn(C)c5C)c(Cl)ccc24)CCC(C)N(Cc2cccc(C(=O)O)c2)C3=O)cc(C)c1Cl` (centres unmarked) [I-125, 3-((8-chloro-11-(3-(4-chloro-3,5-dimethylphenoxy)propyl)-3-methyl-1-oxo-7-(1,3,5-trimethyl-1H-pyrazol-4-yl)-4,5-dihydro-1H-[1,4]diazepino[1,2-a]indol-2(3H)-yl)methyl)benzoic acid], the Ki is less than 50 nM.

For the compound `Cc1cc(OCCCc2c(C(=O)N(C)Cc3ccc(C(=O)O)cc3)n(CCN3CCOCC3)c3c(-c4c(C)nn(C)c4C)c(Cl)ccc23)cc(C)c1Cl` [I-374, 4-((6-chloro-3-(3-(4-chloro-3,5-dimethylphenoxy)propyl)-N-methyl-1-(2-morpholinoethyl)-7-(1,3,5-trimethyl-1H-pyrazol-4-yl)-1H-indole-2-carboxamido)methyl)benzoic acid], the Ki is less than 50 nM.

Consider `Cc1cc(OCCCc2c3n(c4c(-c5c(C)nn(C)c5C)c(Cl)ccc24)CCCN(Cc2cc(C(=O)O)cc(OCCCC(C)C)n2)C3=O)cc(C)c1Cl` [I-303, 2-((8-chloro-11-(3-(4-chloro-3,5-dimethylphenoxy)propyl)-1-oxo-7-(1,3,5-trimethyl-1H-pyrazol-4-yl)-4,5-dihydro-1H-[1,4]diazepino[1,2-a]indol-2(3H)-yl)methyl)-6-((4-methylpentyl)oxy)isonicotinic acid], for which the Ki is less than 50 nM. Still for that read-out and setting: the result for `Cc1cc(OCCCc2c3n(c4c(-c5c(C)nn(C)c5C)cccc24)CCCN(Cc2ccc(N4CCCCC4)c(C(=O)O)c2)C3=O)cc(C)c1Cl` [I-81, 5-((11-(3-(4-chloro-3,5-dimethylphenoxy)propyl)-1-oxo-7-(1,3,5-trimethyl-1H-pyrazol-4-yl)-4,5-dihydro-1H-[1,4]diazepino[1,2-a]indol-2(3H)-yl)methyl)-2-(piperidin-1-yl)benzoic acid] reads 51 to 100 nM. In the case of `Cc1cc(OCCCc2c(C(=O)NCC(=O)NS(=O)(=O)c3ccc4ccccc4c3)[nH]c3ccccc23)cc(C)c1Cl` [I-7, 3-(3-(4-chloro-3,5-dimethylphenoxy)propyl)-N-(2-(naphthalene-2-sulfonamido)-2-oxoethyl)-1H-indole-2-carboxamide], the Ki is 101 to 299 nM. Still for that read-out and setting: the result for `Cc1cc(OCCCc2c3n(c4c(-c5c(C)nn(C)c5C)c(Cl)ccc24)[C@H](C)CN(Cc2cccc(C(=O)O)c2)C3=O)cc(C)c1Cl` [I-155, (R)-3-((7-chloro-10-(3-(4-chloro-3,5-dimethylphenoxy)propyl)-4-methyl-1-oxo-6-(1,3,5-trimethyl-1H-pyrazol-4-yl)-3,4-dihydropyrazino[1,2-a]indol-2(1H)-yl)methyl)benzoic acid] reads less than 50 nM; that for `Cc1cc(OCCCc2c(C(=O)NCc3ccc(N4CCCCC4)c(C(=O)O)c3)[nH]c3c(-c4c(C)nn(C)c4C)cccc23)cc(C)c1Cl` [I-73, 5-((3-(3-(4-chloro-3,5-dimethylphenoxy)propyl)-7-(1,3,5-trimethyl-1H-pyrazol-4-yl)-1H-indole-2-carboxamido)methyl)-2-(piperidin-1-yl)benzoic acid], 301 to 500 nM; that for `Cc1ccncc1-c1cc(C(=O)O)cc(N2CCCn3c(c(CCCOc4cc(C)c(Cl)c(C)c4)c4ccc(Cl)c(-c5c(C)nn(C)c5C)c43)C2=O)c1` [I-234, 3-(8-chloro-11-(3-(4-chloro-3,5-dimethylphenoxy)propyl)-1-oxo-7-(1,3,5-trimethyl-1H-pyrazol-4-yl)-4,5-dihydro-1H-[1,4]diazepino[1,2-a]indol-2(3H)-yl)-5-(4-methylpyridin-3-yl)benzoic acid], less than 50 nM. Still for that read-out and setting: to `Cc1cc(OCCCc2c(C(=O)NCc3cccn3CC(=O)O)[nH]c3c(-c4c(C)nn(C)c4C)cccc23)cc(C)c1Cl` [I-89, 2-(2-((3-(3-(4-chloro-3,5-dimethylphenoxy)propyl)-7-(1,3,5-trimethyl-1H-pyrazol-4-yl)-1H-indole-2-carboxamido)methyl)-1H-pyrrol-1-yl)acetic acid] belongs less than 50 nM; to `Cc1cc(OCCCc2c3n(c4c(-c5c(C)nn(C)c5C)c(Cl)ccc24)C(C)[C@@H](C)N(Cc2ccc(C(=O)O)cn2)C3=O)cc(C)c1Cl` (stereo partly drawn) [I-146, 6-(((3R)-7-chloro-10-(3-(4-chloro-3,5-dimethylphenoxy)propyl)-3,4-dimethyl-1-oxo-6-(1,3,5-trimethyl-1H-pyrazol-4-yl)-3,4-dihydropyrazino[1,2-a]indol-2(1H)-yl)methyl)nicotinic acid], less than 50 nM; to `Cc1cc(OCCCc2c3n(c4c(-c5c(C)nn(C)c5C)c(Cl)ccc24)CCCN(Cc2ccc(C(=O)O)cn2)C3=O)cc(C)c1Cl` [I-102, 6-((8-chloro-11-(3-(4-chloro-3,5-dimethylphenoxy)propyl)-1-oxo-7-(1,3,5-trimethyl-1H-pyrazol-4-yl)-4,5-dihydro-1H-[1,4]diazepino[1,2-a]indol-2(3H)-yl)methyl)nicotinic acid], less than 50 nM. On the same count and under the same terms, the result for `Cc1cc(OCCCc2c3n(c4c(-c5c(C)nn(C)c5C)c(Cl)ccc24)C[C@@H](C)N(Cc2ccc(C(=O)O)cc2)C3=O)cc(C)c1Cl` [I-120, (R)-4-((7-chloro-10-(3-(4-chloro-3,5-dimethylphenoxy)propyl)-3-methyl-1-oxo-6-(1,3,5-trimethyl-1H-pyrazol-4-yl)-3,4-dihydropyrazino[1,2-a]indol-2(1H)-yl)methyl)benzoic acid] reads less than 50 nM. Consider `Cc1cc(OCCCc2c3n(c4c(-c5c(C)nn(C)c5C)c(Cl)ccc24)CCC(C)NC3=O)cc(C)c1Cl` (centres unmarked) [I-114, 8-chloro-1-(3-(4-chloro-3,5-dimethylphenoxy)propyl)-3-methyl-7-(1,3,5-trimethyl-1H-pyrazol-4-yl)-2,3,4,5-tetrahydro-1H-[1,4]diazepino[1,2-a]indol-1-one], for which the Ki was less than 50 nM. Still for that read-out and setting: the result for `Cc1cc(OCCCc2c3n(c4c(-c5c(C)nn(C)c5C)c(Cl)ccc24)CCCN(c2cccc(OC(F)(F)F)c2)C3=O)cc(C)c1Cl` [I-101, 8-chloro-11-(3-(4-chloro-3,5-dimethylphenoxy)propyl)-2-(3-(trifluoromethoxy)phenyl)-7-(1,3,5-trimethyl-1H-pyrazol-4-yl)-2,3,4,5-tetrahydro-1H-[1,4]diazepino[1,2-a]indol-1-one] reads 301 to 500 nM; that for `Cc1cc(OCCCc2c(C(=O)NCCC(=O)NS(=O)(=O)c3cccc([N+](=O)[O-])c3)[nH]c3ccccc23)cc(C)c1Cl` [I-21, 3-(3-(4-chloro-3,5-dimethylphenoxy)propyl)-N-(3-((3-nitrophenyl)sulfonamido)-3-oxopropyl)-1H-indole-2-carboxamide], 101 to 299 nM; that for `Cc1cc(OCCCc2c(C(=O)Nc3ccc(CC(=O)O)cc3)[nH]c3c(-c4c(C)nn(C)c4C)cccc23)cc(C)c1Cl` [I-205, 2-(4-(3-(3-(4-chloro-3,5-dimethylphenoxy)propyl)-7-(1,3,5-trimethyl-1H-pyrazol-4-yl)-1H-indole-2-carboxamido)phenyl)acetic acid], less than 50 nM.

The same test, now with this note: Table 2; Ki bins given in μM; FITC-Bak or FITC-Bim peptide competition; Ki converted from IC50; read-out: Ki for Inhibition of Mcl-1.
On to `COC(=O)[C@H](Cc1ccccc1)NC(=O)CNC(=O)c1[nH]c2c(-c3c(C)nn(C)c3C)cccc2c1CCCOc1cc(C)c(Cl)c(C)c1` [I-288, methyl (3-(3-(4-chloro-3,5-dimethylphenoxy)propyl)-7-(1,3,5-trimethyl-1H-pyrazol-4-yl)-1H-indole-2-carbonyl)glycyl-L-phenylalaninate], for which the Ki was in the range of 1000 to 9990 nM.
